Source: patent US20260174829A1, “METHODS OF REDUCING TYPE 2 CYTOKINE-MEDIATED INFLAMMATION USING NEUROMEDIN PEPTIDES” (Rutgers, The State University of New Jersey, priority 2018, published 2026)

Tested on: lung ILC2s
Assay: Sort-purified lung ILC2 in vitro cultures with Nmb, IL-5/IL-13 ELISA
Type: cell-based, mouse
Description: FIGS. 6A-6E. Nmb suppresses type 2 cytokine responses. (A), Nb-infected mice were treated with PBS or Nmb (i.t.) and ILC2s in the BAL were quantified. (B) Expression of IL-5 and IL-13 in the lungs of PBS or Nmb-treated mice was determined on day 7 post-Nb by Real-time PCR. (C) Eosinophils in the BAL were quantified and (D) worm burdens were determined on day 7 post-Nb infection. ILC2s were sort-purified from the lungs of control or baso-dep mice on day 7 post-Nb and cultured (O/N) with IL-2 and IL-7 in the presence or absence of Nmb and (E) IL-5 and IL-13 levels in culture supernatants were determined by ELISA. P values were determined by two-tailed Student's t-tests.
FIGS. 10A-10B. NMB inhibits type 2 cytokine production from IL-33 activated ILC2. ILC2s were sort-purified from the lungs of Nb-infected mice (day 7) and cultured with survival cytokines (IL-2, IL-7) and in the presence or absence of Nmb and/or IL-33. Following overnight culture, supernatants were tested for the presence of IL-5 (FIG. 10A) and IL-13 (FIG. 10B) by standard ELISA. Statistical comparisons were done using a Student's t-test.
Lung cells were isolated from the lungs of WT or basophil-depleted mice on day 7 post-N. brasiliensis infection. ILC populations (CD45^+Lin^−CD90^+CD127^+) were sort-purified and 10,000 cells were cultured in the presence of 100 ng/mL of IL-2, IL-7 and vehicle (PBS) or 10 μg/mL of Neuromedin B for 24 hours. IL-5 and IL-13 were quantified in cell-free supernatants by ELISA.
These studies illustrate that Nb-induced ILC2 responses are exaggerated in the absence of basophils. […] However, ILC2 responses are also known to be regulated by several other factors following a Nb challenge. Specifically, IL-33 is reported to be a critical regulator of lung ILC2 responses post-Nb infection (24). To address whether altered ILC2 activity in the absence of basophils is a result of reduced availability of IL-33, rather than alterations in NMB-NMBR signaling pathways, ILC2s were sort-purified from the lungs of Nb-infected mice (day 7) and cultured with survival cytokines (IL-2, IL-7) and/or IL-33 and NMB. Following overnight culture, supernatants were tested for the presence of IL-5 and IL-13 by standard ELISA. Statistical comparisons were done using a Student's t-test.

[1] = ILC2s day 7 post-Nb, IL-2 and IL-7, overnight, no IL-33, ELISA
[2] = ILC2s from basophil-deficient Nb-infected mice, overnight with IL-2 and IL-7, ELISA
[3] = ILC2s from basophil-sufficient Nb-infected mice, overnight with IL-2 and IL-7, ELISA

## H2N-GNLWATGHFM-amide [Nmb]
ILC2s day 7 post-Nb, IL-2, IL-7 and IL-33, overnight, ELISA
  type 2 cytokines (IL-5 and IL-13) from IL-33 activated ILC2s: significant reductions
[1]
  IL-5 production from ILC2s at steady-state: significantly reduce
  IL-13 production from ILC2s at steady-state: significantly reduce
[2]
  IL-5 production by ILC2s (significantly reduced or not): not
  IL-13 production by ILC2s (significantly reduced or not): not
[3]
  IL-5 production by ILC2s: significantly reduced
  IL-13 production by ILC2s: significantly reduced
